logP data for 16 molecules are collected here from the SangsterLogP compilation.

The logP is the decadic logarithm of the partition coefficient of the neutral form, usually between octanol and water. Low values mean lower lipophilicity, high ones higher lipophilicity.

The molecule `Oc1ccc(C=Cc2ccc3c(Cl)cc(Cl)c(O)c3n2)c(O)c1` returned a logP of 5.17.
As to `Oc1cccc(C=Cc2ccc3cccc(O)c3n2)c1`, the log partition coefficient (logP) was determined as 4.18.
Then `Oc1c(Cl)cc(Cl)c2ccc(C=Cc3ccccc3Cl)nc12`, with 6.49; and `Oc1ccc(C=Cc2ccc3cccc(O)c3n2)c(O)c1`, with 3.67.
Then `CCOc1ccc(C=Cc2ccc3c(Cl)cc(Cl)c(O)c3n2)cc1`, with 6.25; and `CCOc1ccccc1C=Cc1ccc2c(Cl)cc(Cl)c(O)c2n1`, with 6.28.
In the case of `Oc1ccccc1C=Cc1ccc2ccccc2n1`, the log partition coefficient (logP) is 4.48.
Molecule `Oc1c(Cl)cc(Cl)c2ccc(C=Cc3ccc(C=Cc4ccc5c(Cl)cc(Cl)c(O)c5n4)cc3)nc12` showed a logP of 9.69.
The molecule `CCOc1ccc(C=Cc2ccc3cccc(O)c3n2)cc1` came in with a logP of 4.75.
As for `Oc1ccc(C=Cc2ccc3c(Cl)cc(Cl)c(O)c3n2)cc1`, the figure is 5.72; as for `Oc1cc(O)cc(C=Cc2ccc3c(Cl)cc(Cl)c(O)c3n2)c1`, 5.44; as for `Oc1ccccc1C=Cc1ccc2c(Cl)cc(Cl)c(O)c2n1`, 5.35.
As for `Oc1cccc2ccc(C=Cc3ccccc3Cl)nc12`, the figure is 4.99.
Then `Clc1ccccc1C=Cc1ccc2cccc(Cl)c2n1`, with 5.69; and `Oc1ccc(C=Cc2ccc3c(Cl)cc(Cl)c(O)c3n2)cc1O`, with 5.55.
The molecule `CCOc1ccccc1C=Cc1ccc2cccc(O)c2n1` came in with a logP of 4.8.
